Drawing on US9221834B2 (Merck Sharp & Dohme Corp., priority 2010, dated 2015), this text covers IC50 for 35 molecules.

Molecules are shown by their SMILES.

The experiment has as its target T1, recombinant CETP (rCETP) (Homo sapiens, UniProt P11597).
T1 sequence (P11597 18-493): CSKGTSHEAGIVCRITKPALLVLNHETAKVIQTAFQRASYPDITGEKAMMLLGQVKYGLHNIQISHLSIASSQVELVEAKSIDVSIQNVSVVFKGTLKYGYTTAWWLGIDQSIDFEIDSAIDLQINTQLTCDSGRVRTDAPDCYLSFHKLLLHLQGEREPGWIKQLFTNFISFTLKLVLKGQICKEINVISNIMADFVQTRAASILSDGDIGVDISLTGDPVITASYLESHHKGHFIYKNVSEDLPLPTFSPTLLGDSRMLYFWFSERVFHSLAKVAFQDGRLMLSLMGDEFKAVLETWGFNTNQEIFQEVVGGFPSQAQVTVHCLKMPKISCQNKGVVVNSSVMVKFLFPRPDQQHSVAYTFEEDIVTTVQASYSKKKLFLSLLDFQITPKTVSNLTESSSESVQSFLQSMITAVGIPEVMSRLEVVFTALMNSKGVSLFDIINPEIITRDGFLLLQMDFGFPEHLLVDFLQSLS
The experiment is described as follows: RTA assay using recombinant CETP (2% RTA). Format: biochemical. Particulars: RTA assay in 2% human serum; read-out: IC50. On the procedure: In Vitro Radioactive Assays of CETP-Catalyzed CE and TG Transfer (RTA Assay)
Reagents and sources are: [3H] cholesteryl oleate (GE #TRK.886), [3H]
Both assays measure the transfer of [3H] cholesteryl oleate or [3H]triolein from exogenous LDL to HDL.
After a brief vortex, the solution is sonicated until clear and mixed with 20 mL of fresh human serum. The mixture is incubated overnight at 37° C. […] Once isolated the particles are dialyzed 3× in CETP buffer (50 mM Tris, pH 7.4, 100 mM NaCl, 1 mM EDTA). Human HDL is purchased from Intracel and used as the acceptor particles.
Transfer assays are performed in a 96-well v-bottom polypropylene plate. […] 1 μL of each test compound diluted in DMSO is added to 47 μL of assay cocktail per well and incubated at 37° C. for 1 hour. To initiate the transfer reaction, 2 μL radiolabeled LDL is added. After an additional 60 min of incubation at 37° C., the transfer action is terminated by precipitation of LDL with an equal volume of 20% W/V PEG 8000. The plates are centrifuged at 2000 rpm for 30 minutes at 4° C. A 40 μL aliquot of the HDL-containing supernatant is transferred to a Packard Optiplate with 200 μL of MicroScint 20. After mixing, plates are counted by liquid scintillation. Counts present in the supernatant for blanks (wells containing only HDL acceptor, CETP buffer and DMSO) are subtracted from those containing test compounds and used to correct for non-specific transfer.
Comparison of the counts of samples with inhibitors to an uninhibited (DMSO only) positive control yield a percent inhibition. A plot of percent inhibition vs. log of inhibitor concentration, fit to a Sigmoidal 4 parameter equation is used to calculate IC50.
For `COc1ccc([C@H]2C[C@H](CC(=O)O)C2)cc1-c1ccc(N2CCC2)nc1CN1C(=O)O[C@H](c2cc(C(F)(F)F)cc(C(F)(F)F)c2)[C@@H]1C` [Example 92], the IC50 (commonly the concentration that gives 50% inhibition) is 5 nM. Consider `COC(=O)CCc1ccc(OC)c(-c2ccc(N3CCC3)nc2CN2C(=O)O[C@H](c3ccc(F)c(F)c3)[C@@H]2C)c1` [Example 11], for which the IC50 was determined as 186 nM.

In the case of `COC(=O)CC(C)(C)c1ccc(OC)c(-c2cnc(N3CCC3)nc2CN2C(=O)O[C@H](c3cc(C(F)(F)F)cc(C(F)(F)F)c3)[C@@H]2C)c1` [Example 145], the 50% inhibitory concentration (IC50) came out at 16 nM. On to `COc1cc2c(cc1-c1ccc(N3CCC3)nc1CN1C(=O)O[C@H](c3cc(C(F)(F)F)cc(C(F)(F)F)c3)[C@@H]1C)C(CC(=O)O)CC2` (some centres unmarked) [Example 78], for which the IC50 was determined as 18 nM. On to `COc1ccc(C(C)(C)CC(=O)O)cc1-c1cnc(N2CCC2)nc1CN1C(=O)O[C@H](c2cc(C(F)(F)F)cc(C(F)(F)F)c2)[C@@H]1C` [Example 175], for which the half-inhibitory concentration (IC50) turned out to be 72 nM.

For `COc1ccc([C@H]2CC[C@H](C(=O)O)CC2)cc1-c1cnc(N2CCC2)nc1CN1C(=O)O[C@H](c2cccc(C(F)(F)F)c2)[C@@H]1C` [Example 272], the IC50 turned out to be 165 nM. As for `COc1ccc([C@H]2CC[C@H](C(=O)O)CC2)cc1-c1ccc(N2CC(F)(F)C2)nc1CN1C(=O)O[C@H](c2cc(C)cc(C(F)(F)F)c2)[C@@H]1C` [Example 293], the figure is 7 nM. The figure for `COc1ccc(CC(N)=O)cc1-c1ccc(N2CCC2)nc1CN1C(=O)O[C@H](c2cc(C(F)(F)F)cc(C(F)(F)F)c2)[C@@H]1C` [Example 254, 2-{3-[6-azetidin-1-yl-2-({(4S,5R)-5-[3,5-bis(trifluoromethyl)phenyl]-4-methyl-2-oxo-1,3-oxazolidin-3-yl}methyl)pyridin-3-yl]-4-methoxyphenyl}acetamide] is 15 nM; for `COc1ccc(Cc2nc[nH]n2)cc1-c1ccc(N2CCC2)nc1CN1C(=O)O[C@H](c2cc(C(F)(F)F)cc(C(F)(F)F)c2)[C@@H]1C` [Example 265] it is 23 nM. The figure for `CCOC(=O)c1cc(C)c(-c2ccc(OC)c(-c3ccc(N4CCC4)nc3CN3C(=O)O[C@H](c4cc(C(F)(F)F)cc(C(F)(F)F)c4)[C@@H]3C)c2)n1C` [Example 56] is 5 nM; for `COc1cc(F)c(-c2cc(C(F)(F)F)c(C(=O)O)cn2)cc1-c1cnc(N2CC(F)(F)C2)nc1CN1C(=O)O[C@H](c2cc(C(F)(F)F)cc(C(F)(F)F)c2)[C@@H]1C` [Example 190] it is 146 nM; for `COC(=O)c1ccc(-c2ccc(OC)c(-c3ccc(N4CCC4)nc3CN3C(=O)O[C@H](c4cc(C(F)(F)F)cc(C(F)(F)F)c4)[C@@H]3C)c2)s1` [Example 48] it is 65 nM.

Regarding `COC(=O)[C@@H]1CC[C@@H](c2ccc(OC)c(-c3c(C)cc(N4CCC4)nc3CN3C(=O)O[C@H](c4cc(C(F)(F)F)cc(C(F)(F)F)c4)[C@@H]3C)c2)C1` (mixture of isomers) [Example 216], the IC50 amounted to 9 nM. As to `COc1ccc([C@H]2CC[C@H](C(=O)OC)CC2)cc1-c1ccc(N2CCC2)nc1CN1C(=O)O[C@H](c2cc(F)cc(F)c2)[C@@H]1C` [Example 19], the IC50 amounted to 381 nM. For `CCc1ccc([C@@H]2C[C@H]2C(=O)O)cc1-c1ccc(N2CCC2)nc1CN1C(=O)O[C@H](c2cc(C(F)(F)F)cc(C(F)(F)F)c2)[C@@H]1C` [Example 88], the IC50 came out at 9 nM. The figure for `COC(=O)CCc1ccc(Cl)c(-c2ccc(N3CCC3)nc2CN2C(=O)O[C@H](c3cc(C(F)(F)F)cc(C(F)(F)F)c3)[C@@H]2C)c1` [Example 5] is 7 nM; for `C[C@H]1[C@@H](c2cc(F)cc(C(F)(F)F)c2)OC(=O)N1Cc1nc(N2CC(F)(F)C2)ncc1-c1cc([C@H]2CC[C@H](C(=O)O)CC2)ccc1Cl` [Example 291] it is 49 nM; for `COc1ccc(-c2ccc(C(=O)O)cc2C)cc1-c1cnc(N2CC(OC)C2)nc1CN1C(=O)O[C@H](c2cc(C(F)(F)F)cc(C(F)(F)F)c2)[C@@H]1C` [Example 164] it is 16 nM. As to `COc1ccc([C@H]2CC[C@H](C(=O)OC)CC2)cc1-c1ccc(N2CCC2)nc1CN1C(=O)O[C@H](c2cc(C)cc(C)c2)[C@@H]1C` [Example 200], the IC50 is 55 nM. Take `COc1ccc(CCC(=O)O)cc1-c1cnc(N2CC(F)(F)C2)nc1CN1C(=O)O[C@H](c2cc(C(F)(F)F)cc(C(F)(F)F)c2)[C@@H]1C` [Example 174]: the IC50 was determined as 18 nM.

Turning to `COc1ccc(Cc2nn[nH]n2)cc1-c1ccc(N2CCC2)nc1CN1C(=O)O[C@H](c2cc(C(F)(F)F)cc(C(F)(F)F)c2)[C@@H]1C` [Example 266, (4S,5R)-3-({6-azetidin-1-yl-3-[2-methoxy-5-(2H-tetrazol-5-ylmethyl)phenyl]pyridin-2-yl}methyl)-5-[3,5-bis(trifluoromethyl)phenyl]-4-methyl-1,3-oxazolidin-2-one], the IC50 is 79 nM.

For the molecule `COc1ccc([C@H]2C[C@H](C(=O)O)C2)cc1-c1ccc(N2CCC2)nc1CN1C(=O)O[C@H](c2cc(C(F)(F)F)cc(C(F)(F)F)c2)[C@@H]1C` [Example 90], the IC50 turned out to be 6 nM.

For the molecule `COc1ccc(CC#N)cc1-c1ccc(N2CCC2)nc1CN1C(=O)O[C@H](c2cc(C(F)(F)F)cc(C(F)(F)F)c2)[C@@H]1C` [Example 256, {3-[6-azetidin-1-yl-2-({(4S,5R)-5-[3,5-bis(trifluoromethyl)phenyl]-4-methyl-2-oxo-1,3-oxazolidin-3-yl}methyl)pyridin-3-yl]-4-methoxyphenyl}acetonitrile], the IC50 turned out to be 5 nM. For the molecule `COc1cc(F)c(-c2ccc(C(=O)O)cc2C)cc1-c1cnc(N2CC(OC)C2)nc1CN1C(=O)O[C@H](c2cc(C(F)(F)F)cc(C(F)(F)F)c2)[C@@H]1C` [Example 165], the IC50 was 11 nM. The figure for `COc1cc2c(cc1-c1ccc(N3CCC3)nc1CN1C(=O)O[C@H](c3cccc(C)c3)[C@@H]1C)[C@H](CC(=O)O)CC2` [Example 231] is 403 nM.

Regarding `COc1ccc(-c2ncc(C(=O)O)n2C)cc1-c1ccc(N2CCC2)nc1CN1C(=O)O[C@H](c2cc(C(F)(F)F)cc(C(F)(F)F)c2)[C@@H]1C` [Example 117], the IC50 worked out at 25 nM. `COc1ccc([C@H]2C[C@@H](C(=O)O)C2)cc1-c1ccc(N2CCC2)nc1CN1C(=O)O[C@H](c2cc(C(F)(F)F)cc(C(F)(F)F)c2)[C@@H]1C` [Example 89]: the IC50 amounted to 29 nM. As for `CCOC(=O)C[C@@H]1CCc2cc(OC)c(-c3cnc(N4CC(F)(F)C4)nc3CN3C(=O)O[C@H](c4cc(C(F)(F)F)cc(C(F)(F)F)c4)[C@@H]3C)cc21` [Example 130], the figure is 32 nM; as for `COc1ccc([C@H]2CC[C@H](C(=O)OC)CC2)cc1-c1ccc(N2CCC2)nc1CN1C(=O)O[C@H](c2cc(C(F)(F)F)cc(C(F)(F)F)c2)[C@@H]1C` [Example 9], 15 nM; as for `COc1ccc([C@H]2C[C@@H](CC(=O)O)C2)cc1-c1ccc(N2CCC2)nc1CN1C(=O)O[C@H](c2cc(C(F)(F)F)cc(C(F)(F)F)c2)[C@@H]1C` [Example 91], 10 nM. Regarding `COc1c(F)cc(-n2ncc(C(=O)O)c2C(F)(F)F)cc1-c1cnc(N2CC(F)(F)C2)nc1CN1C(=O)O[C@H](c2cc(C(F)(F)F)cc(C(F)(F)F)c2)[C@@H]1C` [Example 187], the IC50 stood at 4 nM. Turning to `CCOC(=O)CCc1ccc(OC)c(-c2ccc(N3CCC3)nc2CN2C(=O)O[C@H](c3cccc(C(F)(F)F)c3)[C@@H]2C)c1` [Example 197], the IC50 came out at 59 nM. As for `COc1ccc([C@H]2C[C@H](C(=O)O)C2)cc1-c1c(C)cc(N2CCC2)nc1CN1C(=O)O[C@H](c2cc(C(F)(F)F)cc(C(F)(F)F)c2)[C@@H]1C` [Example 97], the figure is 4 nM.

Consider `COC(=O)CCc1ccc(OC)c(-c2c(C)nc(N3CC(F)(F)C3)nc2CN2C(=O)O[C@H](c3cc(C(F)(F)F)cc(C(F)(F)F)c3)[C@@H]2C)c1` [Example 139, Methyl 3-{3-[4-({(4S,5R)-5-[3,5-bis(trifluoromethyl)phenyl]-4-methyl-2-oxo-1,3-oxazolidin-3-yl}methyl)-2-(3,3-difluoroazetidin-1-yl)-6-methylpyrimidin-5-yl]-4-methoxyphenyl}propanoate], for which the IC50 was determined as 13 nM. As for `COC(=O)CC(C)(C)c1ccc(OC)c(-c2ccc(N3CCC3)nc2CN2C(=O)O[C@H](c3cc(F)c(F)c(F)c3)[C@@H]2C)c1` [Example 32], the half-inhibitory concentration (IC50) was 107 nM.
